In data set [1] the test system is HIV-1 mutant strain Y181C. The data set can be described thus: microbe, parasite or virus in culture. It counts as cell-based. To be noted: Human immunodeficiency virus 1, MT4, read-out: EC50 Y181C.
A short description of data set [2]: Cytotoxicity in mock-infected MT-4 cells, MTT method. It counts as cell-based. To be noted: human, mock-infected MT-4 cells, CC50, mock-infected MT-4 cells.
In data set [3] the test system is HIV-1 mutant strain F227L + V106A. Briefly: microbe, parasite or virus in culture. It counts as cell-based. To be noted: Human immunodeficiency virus 1, MT4, read-out: EC50 F227L + V106A.
The test system of data set [4] is HIV-1 mutant strain E138K. The data set can be described thus: microbe, parasite or virus in culture. Particulars: Human immunodeficiency virus 1, MT4, read-out: EC50 E138K. Type of data set: cell-based.
Data set [5] relates to HIV-1 mutant strain RES056 (K103N + Y181C). Briefly: microbe, parasite or virus in culture. It counts as cell-based. To be noted: Human immunodeficiency virus 1, MT4, read-out: EC50 RES056.
Data set [6] relates to HIV-1 mutant strain K103N. The data set can be described thus: microbe, parasite or virus in culture. It counts as cell-based. To be noted: Human immunodeficiency virus 1, MT4, read-out: EC50 K103N.
For data set [7], the system named is HIV-1 mutant strain Y188L. The data set can be described thus: microbe, parasite or virus in culture. Type of data set: cell-based. To be noted: Human immunodeficiency virus 1, MT4, read-out: EC50 Y188L.
Data set [8] concerns HIV-1 mutant strain L100I. Briefly: microbe, parasite or virus in culture. It counts as cell-based. To be noted: Human immunodeficiency virus 1, MT4, read-out: EC50 L100I.
The subject of the next data set is HIV-1 WT strain (IIIB). The data set can be described thus: Anti-HIV activity against WT HIV-1.

SMILES strings stand for the structures.

As for `Cc1ccc(S(=O)(=O)NCCCCNC(=O)c2[nH]c3ccc(Cl)cc3c2S(=O)(=O)c2cc(C)cc(C)c2)cc1` [R1L4, 5-Chloro-3-((3,5-dimethylphenyl)sulfonyl)-N-(4-((4-methylphenyl)sulfonamido)butyl)-1H-indole-2-carboxamide], the EC50 in data set [1] was 310 ± 68 nM; in data set [3], 310 ± 34 nM; in data set [4] it was 130 ± 85 nM; in data set [5] it was above 103000 nM; in [6], 310 ± 68 nM; in data set [7], 1520 ± 270 nM. Further, the EC50 in [8] was found to be 160 ± 85 nM. For the same molecule, the CC50 at 5 days in [2] worked out at 103000 ± 59800 nM. Besides, the “SI IIIB (CC50/EC50 ratio)” value in the data set with HIV-1 WT strain (IIIB) (WT HIV-1 IIIB) is given as 3232.

For the molecule `Cc1cc(C)cc(S(=O)(=O)c2c(C(=O)NCCNS(=O)(=O)c3ccc(-c4ccccc4)cc3)[nH]c3ccc(Cl)cc23)c1` [R14L2, N-(2-([1,1′-Biphenyl]-4-sulfonamido)ethyl)-5-chloro-3-((3,5-dimethylphenyl)sulfonyl)-1H-indole-2-carboxamide], the half-maximal effective concentration (EC50) in data set [1] was 1420 ± 370 nM; in data set [3], 2990 ± 680 nM; in data set [4], 740 ± 97 nM; in data set [5], above 82400 nM; in data set [6], 1190 ± 260 nM; in data set [7] it was above 31200 nM. For the same molecule, the EC50 in [8] came out at 950 ± 97 nM. This molecule registered a CC50 at 5 days in [2] of 64300 ± 11200 nM. The “SI IIIB (CC50/EC50 ratio)” value in the data set on HIV-1 WT strain (IIIB) (WT HIV-1 IIIB) turned out to be 317.

In the case of `Cc1cc(C)cc(S(=O)(=O)c2c(C(=O)NCCNS(=O)(=O)c3ccc(Br)cc3)[nH]c3ccc(Cl)cc23)c1` [R6L2, 5-Chloro-3-((3,5-dimethylphenyl)sulfonyl)-N-(2-((4-bromophenyl)sulfonamido)ethyl)-1H-indole-2-carboxamide], the EC50 in data set [1] is 1010 ± 32 nM; in data set [3], 2730 ± 480 nM; in data set [4], 1270 ± 110 nM; in data set [5], at least 12200 nM; in data set [6] it was 950 ± 160 nM; in data set [7], at least 33700 nM. In addition, in data set [8], the EC50 came out at 750 ± 64 nM. In addition, it took 151000 ± 19300 nM to reach half-maximal cytotoxicity in [2] (CC50 at 5 days). For the same molecule, in the data set with HIV-1 WT strain (IIIB) (WT HIV-1 IIIB), the “SI IIIB (CC50/EC50 ratio)” value was 964.

Take `Cc1ccc(S(=O)(=O)NCCNC(=O)c2[nH]c3ccc(Cl)cc3c2S(=O)(=O)c2cc(C)cc(C)c2)cc1` [R1L2, 5-Chloro-3-((3,5-dimethylphenyl)sulfonyl)-N-(2-((4-methylphenyl)sulfonamido)ethyl)-1H-indole-2-carboxamide]: the concentration giving a half-maximal response (EC50) is 610 ± 130 nM in data set [1]; 1750 ± 200 nM in [3]; 860 ± 360 nM in data set [4]; 3380 ± 890 nM in data set [5]; 410 ± 110 nM in [6]; 6420 ± 1400 nM in data set [7]. The EC50 in [8] was 680 ± 390 nM. Moreover, in data set [2], the CC50 at 5 days stood at 168000 ± 17200 nM. Moreover, the “SI IIIB (CC50/EC50 ratio)” value in the data set on HIV-1 WT strain (IIIB) (WT HIV-1 IIIB) came to 3787.

Take `Cc1cc(C)cc(S(=O)(=O)c2c(C(=O)NCCCCNS(=O)(=O)c3ccc(C#N)cc3)[nH]c3ccc(Cl)cc23)c1` [R5L4, 5-Chloro-3-((3,5-dimethylphenyl)sulfonyl)-N-(4-((4-cyanophenyl)sulfonamido)butyl)-1H-indole-2-carboxamide]: the EC50 in data set [1] was 54 ± 2 nM; in data set [3] it was 82 ± 35 nM; in data set [4], 32 ± 18 nM; in data set [5], above 4580 nM; in [6], 67 ± 5 nM; in [7], 150 ± 10 nM. In addition, the concentration for a half-maximal effect (EC50) in data set [8] came to 25 ± 2 nM. The molecule also had a CC50 at 5 days in [2] of 4580 ± 3530 nM. The “SI IIIB (CC50/EC50 ratio)” value with HIV-1 WT strain (IIIB) (WT HIV-1 IIIB) is 279.

With `Cc1cc(C)cc(S(=O)(=O)c2c(C(=O)NCCCNS(=O)(=O)c3ccccc3F)[nH]c3ccc(Cl)cc23)c1` [R11L3, 5-Chloro-3-((3,5-dimethylphenyl)sulfonyl)-N-(3-((2-fluorophenyl)sulfonamido)propyl)-1H-indole-2-carboxamide], the EC50 was 610 ± 140 nM in [1]; 880 ± 520 nM in [3]; 68 ± 2 nM in data set [4]; 12800 ± 10100 nM in data set [5]; 280 ± 35 nM in [6]; 7120 ± 760 nM in [7]. The EC50 in [8] was 160 ± 78 nM. Half-maximal cytotoxicity in [2] (CC50 at 5 days) was put at 192000 ± 4990 nM. For the same molecule, the “SI IIIB (CC50/EC50 ratio)” value in the data set with HIV-1 WT strain (IIIB) (WT HIV-1 IIIB) is listed as 12,570.

For `Cc1cc(C)cc(S(=O)(=O)c2c(C(=O)NCCNS(=O)(=O)C3CC3)[nH]c3ccc(Cl)cc23)c1` [R13L2, 5-Chloro-N-(2-(cyclopropanesulfonamido)ethyl)-3-((3,5-dimethylphenyl)sulfonyl)-1H-indole-2-carboxamide], the half-maximal effective concentration (EC50) came out at 180 ± 57 nM in data set [1]; 510 ± 120 nM in data set [3]; 55 ± 16 nM in data set [4]; 32600 ± 7960 nM in data set [5]; 110 ± 20 nM in [6]; 1650 ± 390 nM in data set [7]. In addition, the EC50 was found to be 53 ± 22 nM in data set [8] and 4.1 ± 0.79 nM in the data set with HIV-1 WT strain (IIIB) (read-out: EC50 IIIB, WT HIV-1 IIIB, MT-4 cells). In data set [2], this molecule had a CC50 at 5 days of 172000 ± 6910 nM. Also, in the data set on HIV-1 WT strain (IIIB) (WT HIV-1), the “selectivity index, times higher than that of IAS-0” value is on record as around 14 times. The “SI IIIB (CC50/EC50 ratio)” value in the data set on HIV-1 WT strain (IIIB) (WT HIV-1 IIIB) is reported as 41,951.

As to `Cc1cc(C)cc(S(=O)(=O)c2c(C(=O)NCCCCNS(=O)(=O)c3cccc(F)c3)[nH]c3ccc(Cl)cc23)c1` [R12L4, 5-Chloro-3-((3,5-dimethylphenyl)sulfonyl)-N-(4-((3-fluorophenyl)sulfonamido)butyl)-1H-indole-2-carboxamide], the concentration for a half-maximal effect (EC50) in data set [1] is 190 ± 34 nM; in [3] it was 240 ± 34 nM; in data set [4] it was 49 ± 12 nM; in data set [5], above 173000 nM; in data set [6] it was 240 ± 68 nM; in [7], 1450 ± 410 nM. For the same molecule, in [8], the EC50 is 63 ± 17 nM. Moreover, it took 186000 ± 12500 nM to reach half-maximal cytotoxicity in data set [2] (CC50 at 5 days). The “SI IIIB (CC50/EC50 ratio)” value in the data set on HIV-1 WT strain (IIIB) (WT HIV-1 IIIB) was 10,126.

On to `Cc1cc(C)cc(S(=O)(=O)c2c(C(=O)NCCNS(=O)(=O)c3ccc([N+](=O)[O-])cc3)[nH]c3ccc(Cl)cc23)c1` [R3L2, 5-Chloro-3-((3,5-dimethylphenyl)sulfonyl)-N-(2-((4-nitrophenyl)sulfonamido)ethyl)-1H-indole-2-carboxamide], for which the EC50 is 1000 ± 170 nM in [1]; 6170 ± 1140 nM in data set [3]; 1150 nM in [4]; above 212000 nM in data set [5]; 590 ± 100 nM in data set [6]; above 212000 nM in data set [7]. Also, the EC50 in [8] turned out to be 950 ± 85 nM. The molecule further had a CC50 at 5 days in data set [2] above 212000 nM. In the data set with HIV-1 WT strain (IIIB) (WT HIV-1 IIIB), the “SI IIIB (CC50/EC50 ratio)” value is recorded as above 1764.

For `Cc1cc(C)cc(S(=O)(=O)c2c(C(=O)NCCNS(=O)(=O)c3ccc(Cl)cc3)[nH]c3ccc(Cl)cc23)c1` [R7L2, 5-Chloro-3-((3,5-dimethylphenyl)sulfonyl)-N-(2-((4-chlorophenyl)sulfonamido)ethyl)-1H-indole-2-carboxamide], the EC50 worked out at 310 ± 160 nM in data set [1]; 1040 ± 350 nM in data set [3]; 360 ± 17 nM in data set [4]; 3090 ± 500 nM in [5]; 220 nM in data set [6]; 2660 ± 170 nM in data set [7]. Moreover, the EC50 in data set [8] was found to be 170 ± 41 nM. In data set [2], this molecule yielded a CC50 at 5 days of 175000 ± 42800 nM. Besides, the “SI IIIB (CC50/EC50 ratio)” value in the data set on HIV-1 WT strain (IIIB) (WT HIV-1 IIIB) is recorded as 13,010.

As to `Cc1cc(C)cc(S(=O)(=O)c2c(C(=O)NCCCCCNS(=O)(=O)c3ccc(Br)cc3)[nH]c3ccc(Cl)cc23)c1` [R6L5, 5-Chloro-3-((3,5-dimethylphenyl)sulfonyl)-N-(5-((4-bromophenyl)sulfonamido)pentyl)-1H-indole-2-carboxamide], the half-maximal effective concentration (EC50) in [1] was 350 nM; in [3], 680 ± 75 nM; in data set [4], 320 ± 15 nM; in [5], above 37900 nM; in data set [6] it was 740 ± 90 nM; in data set [7], 2470 ± 30 nM. Further, the EC50 in [8] was determined as 120 ± 39 nM. Also, in [2], the midpoint of cytotoxicity, the CC50 at 5 days, lay at 37900 ± 6320 nM. For the same molecule, the “SI IIIB (CC50/EC50 ratio)” value with HIV-1 WT strain (IIIB) (WT HIV-1 IIIB) came to 501.

These data come from paper PMC10326263 (Acta Pharmaceutica Sinica. B, 2023).
